Target: PAICS (Homo sapiens, UniProt P22234)
Details: can reach; biochemical enzyme activity and cell biology experiments

PAICS, sequence (P22234 whole entry): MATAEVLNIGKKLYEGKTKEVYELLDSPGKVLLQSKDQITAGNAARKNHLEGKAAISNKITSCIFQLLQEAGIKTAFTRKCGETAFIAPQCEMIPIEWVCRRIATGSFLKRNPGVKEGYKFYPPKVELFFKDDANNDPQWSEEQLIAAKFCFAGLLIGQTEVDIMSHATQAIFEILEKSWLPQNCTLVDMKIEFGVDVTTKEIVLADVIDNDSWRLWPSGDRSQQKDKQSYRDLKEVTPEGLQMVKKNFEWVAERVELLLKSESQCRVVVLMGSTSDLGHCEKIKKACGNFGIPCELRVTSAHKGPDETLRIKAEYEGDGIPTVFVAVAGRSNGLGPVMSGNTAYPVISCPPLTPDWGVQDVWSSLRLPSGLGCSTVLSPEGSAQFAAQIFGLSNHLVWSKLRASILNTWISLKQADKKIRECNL

`NCCCNCCCCNCCCN` [spermine, Spermine] was tested, and the “inhibition ratio against SAICAR accumulation” value was 71.1%.
